Results from patent US20220389003A1, “4-SUBSTITUTED INDOLE AND INDAZOLE SULFONAMIDO DERIVATIVES AS PARG INHIBITORS” (IDEAYA BIOSCIENCES, INC., priority 2019, published 2022).

Experiments:
[1] = target: T1, PARG (Homo sapiens, UniProt Q86W56); experiment: Inhibition of PARG enzymatic assay (TR-FRET enzymatic IC50 assay); format: biochemical; set-up: purchased Peak Proteins; settings: hPARG 250 pM, biotinylated-PARylated PARP substrate 30 nM
Protocol: PARG enzyme was incubated with compound or vehicle (DMSO) and the biotinylated-PARylated PARP substrate in a microtiter plate. After adding detection antibody and streptavidin-europium, and then incubating, the plate was read for fluorescence intensity. The low control (DMSO) with low fluorescence intensity represents no inhibition of enzymatic reaction while the high control (no enzyme) with high fluorescence intensity represents full inhibition of enzymatic reaction.
• PARG • hPARG: 250 pM, His-tagged, Peak Proteins, 0.96 mg/mL (8.58 μM) • Substrate: 30 nM • Reaction time: 70 minutes • Substrate: hPARP1, His- and TEV-tagged, Peak Proteins, 14 μM • Detection Antibody: anti-His monoclonal antibody-ULight, Perkin Elmer catalog #TRF0105-M • Streptavidin-Europium: Perkin Elmer catalog #AD0062 • Assay buffer: 50 mM Tris-HCl pH 7.4, 50 mM KCl, 3 mM EDTA, 0.4 mM EGTA, 1 mM DTT, 0.01% Tween 20, 0.01% BSA • Temperature: 23° C. • Total volume: 20 μL
• 0% inhibition control: DMSO • 100% inhibition control: No enzyme
• 1. Transfer 5 μL of 3× final concentration of test compounds or DMSO to the appropriate wells of a microtiter plate. • 2. Centrifuge the plate at 1000 rpm for 1 minute. • 3. Transfer 5 μL of 3× final concentration of enzyme in assay buffer or assay buffer alone to the appropriate wells. • 4. Centrifuge the plate at 1000 rpm for 1 minute. • 5. Incubate the plate at room temperature for 1 hour. • 6. Transfer 5 μL of 3× substrate in assay buffer to all the test wells. • 7. Centrifuge the plate at 1000 rpm for 1 minute. • 8. Incubate the plate at room temperature for 10 minutes. • 9. Transfer 5 μL of 3× mixture of detection antibody and streptavidin-europium in assay buffer to all the test wells. • 10. Centrifuge the plate at 1000 rpm for 1 minute. • 11. Incubate the plate at room temperature for 1 hour. • 12. Read the plate on a plate reader (e.g., Infinite M1000).

[2] = target: T1, PARG; experiment: Inhibition of PARG cellular assay (PAR foci in HeLa cells after MMS); format: cell-based; set-up: endogenous in cells; host or cells: HeLa; settings: compound 1 h then MMS 1 h
Protocol: The ability of the compounds disclosed herein to inhibit PARG was determined as described below. Briefly, after treating HeLa cells with the compounds of the disclosure for 1 h, followed by treatment with DNA alkylating agent methylmethanesulfonate (MMS) for an additional 1 h, the cells were fixed in 3.7% formaldehyde. The cells were permeabilized in 0.5% Triton-X100, blocked in 5% goat serum, and incubated with mouse monoclonal antibody against poly (ADP) ribose (PAR) polymer overnight at 4° C. The cells were washed and incubated with an Alexafluor 488-linked secondary antibody together with a nuclear stain (Hoechst 33342) for an hour at room temperature. After washing, images of the cells were captured and analyzed on a high content imaging microscope and software. Two measurement of PAR chain were quantified with the mean intensity over background of the nuclear foci (fluorescent signal at 488 nm range 0.3-2.0 μm foci) quantified as PAR foci (PAR Foci IC50). The cells with a PAR foci signal >1.3 was considered as positive (PAR % positive IC50), and the percentage positive cells are quantified.

[3] = system: HCC1806-XRCC1 KD (knock down) cells; experiment: Cellular viability assay (Cell Titer-Glo); format: cell-based; settings: 96 h, HCC1806-shXRCC1 cells, 4 days of incubation, read-out: PARGi cell viability
Protocol: HCC1806-XRCC1 KD (knock down) cells were plated at 2000 cells/well in 96-well white plates with clear flat bottom. After 24 hours, the compounds of the disclosure were added starting at 30 μM for a 9-point dose response curve at 1:3 dilution. The compounds of the disclosure were added by Tecan digital dispenser excluding the outermost wells of the plate. All treatments were done in duplicates. After 4 days of incubation, 50 ul of Cell Titer-Glo (Promega) was added per well. After incubation with the reagent for 15 minutes, luminescence was read using a plate reader (TECAN). Average values of DMSO treated wells in a plate was calculated. All data points were normalized to that of the average DMSO value. The % of control for each sample compared to DMSO treated control samples. Curves are fit as % of control vs. log [compound concentration] using a 4 parameter inhibition model (Levenberg-Marquardt algorithm):
Fit=(A+((B−A)/(1+((C/x)^D))))

T1 sequence (Q86W56 whole entry): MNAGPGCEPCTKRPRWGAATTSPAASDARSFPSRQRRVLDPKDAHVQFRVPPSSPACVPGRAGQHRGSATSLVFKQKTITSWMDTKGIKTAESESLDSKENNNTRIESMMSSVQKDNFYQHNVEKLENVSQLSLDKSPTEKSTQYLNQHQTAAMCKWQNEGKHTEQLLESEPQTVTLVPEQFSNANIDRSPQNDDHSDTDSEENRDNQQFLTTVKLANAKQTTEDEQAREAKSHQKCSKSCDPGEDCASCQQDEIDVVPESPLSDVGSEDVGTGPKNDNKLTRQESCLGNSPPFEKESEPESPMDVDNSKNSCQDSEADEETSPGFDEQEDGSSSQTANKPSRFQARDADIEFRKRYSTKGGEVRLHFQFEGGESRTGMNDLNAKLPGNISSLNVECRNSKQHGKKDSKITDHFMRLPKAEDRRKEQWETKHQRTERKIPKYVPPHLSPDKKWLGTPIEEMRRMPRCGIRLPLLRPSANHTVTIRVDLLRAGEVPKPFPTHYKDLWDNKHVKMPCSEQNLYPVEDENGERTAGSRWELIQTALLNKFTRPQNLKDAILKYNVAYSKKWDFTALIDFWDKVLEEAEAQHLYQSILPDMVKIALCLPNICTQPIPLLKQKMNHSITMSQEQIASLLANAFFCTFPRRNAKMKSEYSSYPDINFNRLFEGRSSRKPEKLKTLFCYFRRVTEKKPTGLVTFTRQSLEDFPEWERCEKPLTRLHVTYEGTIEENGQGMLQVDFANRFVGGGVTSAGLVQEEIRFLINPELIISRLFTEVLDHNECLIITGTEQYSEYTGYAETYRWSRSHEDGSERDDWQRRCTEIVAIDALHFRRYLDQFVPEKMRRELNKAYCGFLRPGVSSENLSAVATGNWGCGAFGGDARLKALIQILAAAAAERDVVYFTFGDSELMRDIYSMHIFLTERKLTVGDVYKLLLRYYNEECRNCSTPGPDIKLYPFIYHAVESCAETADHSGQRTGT

SMILES | IC50 [1] [µM] | IC50 [2] [µM] | IC50 [3] [µM]
CN(CC(F)(F)F)C(=O)N1CCN(c2cc(S(=O)(=O)NC3(C#N)CC3)cc3c2cnn3-c2nnc(C(F)F)s2)CC1 [Example 86, [4-(1-[5-(difluoromethyl)(1,3,4-thiadiazol-2-yl)]-6-{[(cyanocyclopropyl)amino]sulfonyl}(1H-indazol-4-yl))piperazinyl]-N-methyl-N-(2,2,2-trifluoroethyl)carboxamide] | ≤ 0.1 | ≤ 0.1 | < 1
N#CC1(NS(=O)(=O)c2cc(N3CCN(c4ccccn4)CC3)c3cnn(-c4nnc(C(F)F)s4)c3c2)CC1 [Example 93, 1-[({1-[5-(difluoromethyl)(1,3,4-thiadiazol-2-yl)]-4-(4-(2-pyridyl)piperazinyl)-1H-indazol-6-yl}sulfonyl)amino]cyclopropanecarbonitrile] | 1 to 10 | 0.3 to 1 | 1 to 10
Cc1ccncc1N1CCN(c2cc(S(=O)(=O)NC3(C#N)CC3)cc3c2cnn3-c2nnc(C(F)F)s2)CC1 [Example 84, 1-[({1-[5-(difluoromethyl)(1,3,4-thiadiazol-2-yl)]-4-[4-(4-methyl(3-pyridyl))piperazinyl]-1H-indazol-6-yl}sulfonyl)amino]cyclopropanecarbonitrile] | 0.3 to 1 | 0.1 to 0.3 | 1 to 10
N#CC1(NS(=O)(=O)c2cc(N3CCN(c4cccnc4)CC3)c3cnn(-c4nnc(C(F)F)s4)c3c2)CC1 [Example 94, 1-[({1-[5-(difluoromethyl)(1,3,4-thiadiazol-2-yl)]-4-(4-(3-pyridyl)piperazinyl)-1H-indazol-6-yl}sulfonyl)amino]cyclopropanecarbonitrile] | 0.3 to 1 | 0.3 to 1 | 1 to 10
CC(C)C(=O)N1[C@@H]2CC[C@H]1CN(c1cc(S(=O)(=O)NC3(C#N)CC3)cc3c1cnn3-c1nnc(C(F)F)s1)C2 [Example 37, 1-[({4-[(1S,5R)-8-(2-methylpropanoyl)-3,8-diazabicyclo[3.2.1]oct-3-yl]-1-[5-(difluoromethyl)(1,3,4-thiadiazol-2-yl)]-1H-indazol-6-yl}sulfonyl)amino]cyclopropane carbonitrile] | – | ≤ 0.1 | 1 to 10
N#CC1(NS(=O)(=O)c2cc(N3CCN(C(=O)C4CCC4)CC3)c3cnn(-c4nnc(C(F)F)s4)c3c2)CC1 [Example 81, 1-[({1-[5-(difluoromethyl)(1,3,4-thiadiazol-2-yl)]-4-[4-(cyclobutylcarbonyl)piperazinyl]-1H-indazol-6-yl}sulfonyl)amino]cyclopropanecarbonitrile] | – | ≤ 0.1 | < 1

Further lines, results first:

IC50 [1] [µM] | IC50 [2] [µM] | IC50 [3] [µM] | SMILES
≤ 0.1 | ≤ 0.1 | < 1 | CC1(C(=O)N2CCN(c3cc(S(=O)(=O)NC4(C#N)CC4)cc4c3cnn4-c3nnc(C(F)F)s3)CC2)CCC1 [Example 112, 1-{[(1-[5-(difluoromethyl)(1,3,4-thiadiazol-2-yl)]-4-{4-[(methylcyclobutyl)carbonyl]piperazinyl}-1H-indazol-6-yl)sulfonyl]amino}cyclopropanecarbonitrile]
0.1 to 0.3 | 0.3 to 1 | 10 to 20 | CN(C)C(=O)C1CCN(c2cc(S(=O)(=O)NC3(C#N)CC3)cc3c2cnn3-c2nnc(C(F)F)s2)CC1 [Example 51, [1-(1-[5-(difluoromethyl)(1,3,4-thiadiazol-2-yl)]-6-{[(cyanocyclopropyl)amino]sulfonyl}(1H-indazol-4-yl))(4-piperidyl)]-N,N-dimethylcarboxamide]
≤ 0.1 | 0.1 to 0.3 | 1 to 10 | N#CC1(NS(=O)(=O)c2cc(N3CCN(C(=O)C4CCN(CC(F)F)CC4)CC3)c3cnn(-c4nnc(C(F)F)s4)c3c2)CC1 [Example 107, 1-({[4-(4-{[1-(2,2-difluoroethyl)(4-piperidyl)]carbonyl}piperazinyl)-1-[5-(difluoro-methyl)(1,3,4-thiadiazol-2-yl)]-1H-indazol-6-yl]sulfonyl}amino)cyclopropane carbonitrile]
≤ 0.1 | 0.3 to 1 | 1 to 10 | N#CC1(NS(=O)(=O)c2cc(N3CCN4C(=O)CC[C@H]4C3)c3cnn(-c4nnc(C(F)F)s4)c3c2)CC1 [Example 59, 1-[({4-((1S)-7-oxo-3,6-diazabicyclo[4.3.0]non-3-yl)-1-[5-(difluoromethyl)(1,3,4-thiadiazol-2-yl)]-1H-indazol-6-yl}sulfonyl)amino]cyclopropanecarbonitrile]
≤ 0.1 | 0.3 to 1 | 20 to 30 | Cn1cc(-c2cc(S(=O)(=O)NC3(C#N)CC3)cc3c2cnn3-c2nnc(C(F)F)s2)ccc1=O [Example 5, N-(1-cyanocyclopropyl)-1-(5-(difluoromethyl)-1,3,4-thiadiazol-2-yl)-4-(1-methyl-6-oxo-1,6-dihydropyridin-3-yl)-1H-indazole-6-sulfonamide]
≤ 0.1 | ≤ 0.1 | < 1 | C[C@@H]1CN(c2cc(S(=O)(=O)NC3(C#N)CC3)cc3c2cnn3-c2nnc(C(F)F)s2)CCN1C(=O)C1(C)CCC1 [Example 109, 1-{[(4-{(3R)-3-methyl-4-[(methylcyclobutyl)carbonyl]piperazinyl}-1-[5-(difluoro-methyl)(1,3,4-thiadiazol-2-yl)]-1H-indazol-6-yl)sulfonyl]amino}cyclopropane carbonitrile]
≤ 0.1 | ≤ 0.1 | 1 to 10 | C[C@@H]1CN(c2cc(S(=O)(=O)NC3(C#N)CC3)cc3c2cnn3-c2nnc(C(F)F)s2)CCN1C(=O)C1CCN(CC(F)F)CC1 [Example 106, 1-({[4-((3R)-4-{[1-(2,2-difluoroethyl)(4-piperidyl)]carbonyl}-3-methylpiperazinyl)-1-[5-(difluoromethyl)(1,3,4-thiadiazol-2-yl)]-1H-indazol-6-yl]sulfonyl}amino) cyclopropanecarbonitrile]
≤ 0.1 | ≤ 0.1 | < 1 | CC1(NS(=O)(=O)c2cc(N3CCC4(CC3)COC4)c3cnn(-c4nnc(C(F)F)s4)c3c2)CC1 [Example 23, ({1-[5-(difluoromethyl)(1,3,4-thiadiazol-2-yl)]-4-(2-oxa-7-azaspiro[3.5]non-7-yl)(1H-indazol-6-yl)}sulfonyl)(methylcyclopropyl)amine]
≤ 0.1 | 1 to 10 | 1 to 10 | CN1CCC[C@@H]1C(=O)N1CCN(c2cc(S(=O)(=O)NC3(C#N)CC3)cc3c2cnn3-c2nnc(C(F)F)s2)CC1 [Example 90, 1-{[(4-{4-[((2R)-1-methylpyrrolidin-2-yl)carbonyl]piperazinyl}-1-[5-(difluoromethyl)(1,3,4-thiadiazol-2-yl)]-1H-indazol-6-yl)sulfonyl]amino}cyclopropanecarbonitrile]
– | 0.3 to 1 | 1 to 10 | N#CC1(NS(=O)(=O)c2cc(N3CCN(C=O)CC3)c3cnn(-c4nnc(C(F)F)s4)c3c2)CC1 [Example 49, 1-[({1-[5-(difluoromethyl)(1,3,4-thiadiazol-2-yl)]-4-(4-formylpiperazinyl)-1H-indazol-6-yl}sulfonyl)amino]cyclopropanecarbonitrile]
